{
  "source": "paper PMC9199891",
  "about": "(Clinical and Translational Science, 2022)",
  "test": "Single-dose pharmacokinetics of omeprazole",
  "format": "in vivo, healthy Chinese volunteers",
  "conditions": "for AUC0-t / AUC0-∞ / Cmax: 20 mg single oral dose, mean ± SD; for Tmax: human, plasma, oral, 20 mg",
  "data": [
    {"smiles": "COc1ccc2[nH]c([S+]([O-])Cc3ncc(C)c(OC)c3C)nc2c1", "note": "(centres unmarked) [omeprazole]", "values": [
      {"measurement": "AUC0-t", "setting": "CYP2C19 *1/*1 (n = 263)", "result": "466.2 ± 493.2", "unit": "ng·h/mL"},
      {"measurement": "AUC0-∞", "setting": "CYP2C19 *1/*1 (n = 263)", "result": "499.3 ± 498.4", "unit": "ng·h/mL"},
      {"measurement": "Cmax", "setting": "CYP2C19 *1/*1 (n = 263)", "result": "309 ± 227", "unit": "ng/mL"},
      {"measurement": "AUC0-t", "setting": "CYP2C19 *1/*2 (n = 241)", "result": "766.4 ± 529.4", "unit": "ng·h/mL"},
      {"measurement": "AUC0-∞", "setting": "CYP2C19 *1/*2 (n = 241)", "result": "817.8 ± 524.4", "unit": "ng·h/mL"},
      {"measurement": "Cmax", "setting": "CYP2C19 *1/*2 (n = 241)", "result": "449 ± 309", "unit": "ng/mL"},
      {"measurement": "AUC0-t", "setting": "CYP2C19 *1/*3 (n = 48)", "result": "707.8 ± 490.3", "unit": "ng·h/mL"},
      {"measurement": "AUC0-∞", "setting": "CYP2C19 *1/*3 (n = 48)", "result": "808.0 ± 545.9", "unit": "ng·h/mL"},
      {"measurement": "Cmax", "setting": "CYP2C19 *1/*3 (n = 48)", "result": "440 ± 390", "unit": "ng/mL"},
      {"measurement": "AUC0-t", "setting": "CYP2C19 *1/*17 (n = 6)", "result": "363.8 ± 232.6", "unit": "ng·h/mL"},
      {"measurement": "AUC0-∞", "setting": "CYP2C19 *1/*17 (n = 6)", "result": "366.5 ± 233.4", "unit": "ng·h/mL"},
      {"measurement": "AUC0-t", "setting": "CYP2C19 *2/*2 (n = 74)", "result": "3379 ± 1421", "unit": "ng·h/mL"},
      {"measurement": "AUC0-∞", "setting": "CYP2C19 *2/*2 (n = 74)", "result": "3790 ± 1311", "unit": "ng·h/mL"},
      {"measurement": "Cmax", "setting": "CYP2C19 *2/*2 (n = 74)", "result": "1130 ± 992", "unit": "ng/mL"},
      {"measurement": "AUC0-t", "setting": "CYP2C19 *2/*3 (n = 17)", "result": "3908 ± 1560", "unit": "ng·h/mL"},
      {"measurement": "AUC0-∞", "setting": "CYP2C19 *2/*3 (n = 17)", "result": "4221 ± 1453", "unit": "ng·h/mL"},
      {"measurement": "Cmax", "setting": "CYP2C19 *2/*3 (n = 17)", "result": "1040 ± 550", "unit": "ng/mL"},
      {"measurement": "AUC0-t", "setting": "CYP2C19 *2/*17 (n = 2)", "result": "507.3 ± 150.3", "unit": "ng·h/mL"},
      {"measurement": "AUC0-∞", "setting": "CYP2C19 *2/*17 (n = 2)", "result": "693.0 ± 109.6", "unit": "ng·h/mL"},
      {"measurement": "Cmax", "setting": "CYP2C19 *2/*17 (n = 2)", "result": "530 ± 344", "unit": "ng/mL"},
      {"measurement": "AUC0-t", "setting": "CYP2C19 *3/*3 (n = 2)", "result": "3913 ± 493.0", "unit": "ng·h/mL"},
      {"measurement": "AUC0-∞", "setting": "CYP2C19 *3/*3 (n = 2)", "result": "4444 ± 793.4", "unit": "ng·h/mL"},
      {"measurement": "Cmax", "setting": "CYP2C19 *3/*3 (n = 2)", "result": "884 ± 575", "unit": "ng/mL"},
      {"measurement": "AUC0-t", "setting": "CYP2C19 *3/*17 (n = 3)", "result": "544.8 ± 14.52", "unit": "ng·h/mL"},
      {"measurement": "AUC0-∞", "setting": "CYP2C19 *3/*17 (n = 3)", "result": "547.0 ± 14.47", "unit": "ng·h/mL"},
      {"measurement": "Cmax", "setting": "CYP2C19 phenotype IM (n = 294)", "result": "447 ± 322", "unit": "ng/mL"},
      {"measurement": "AUC0-t", "setting": "CYP2C19 phenotype NM (n = 263)", "result": "466.16 ± 493.21", "unit": "ng·h/mL"},
      {"measurement": "Cmax", "setting": "CYP2C19 phenotype NM (n = 263)", "result": "308 ± 227", "unit": "ng/mL"},
      {"measurement": "AUC0-t", "setting": "CYP2C19 phenotype PM (n = 93)", "result": "3487.32 ± 1440.13", "unit": "ng·h/mL"},
      {"measurement": "AUC0-∞", "setting": "CYP2C19 phenotype PM (n = 93)", "result": "3883.09 ± 1331.02", "unit": "ng·h/mL"},
      {"measurement": "Cmax", "setting": "CYP2C19 phenotype PM (n = 93)", "result": "1110 ± 916", "unit": "ng/mL"},
      {"measurement": "AUC0-t", "setting": "CYP2C19 phenotype RM (n = 6)", "result": "363.77 ± 232.56", "unit": "ng·h/mL"},
      {"measurement": "Cmax increase in PM", "setting": "PM versus IM", "result": 2.5, "unit": "fold"},
      {"measurement": "Tmax", "setting": "after administration in all groups (four phenotype groups)", "result": "3.89 to 4.45", "unit": "h"},
      {"measurement": "Tmax", "setting": "after administration in all subjects (nine diplotype groups)", "result": "1.33 to 4.6", "unit": "h"}
    ]}
  ]
}
